Here are results for 4 molecules from ChEMBL document CHEMBL1143426, “In vivo efficacy of ceftaroline (PPI-0903), a new broad-spectrum cephalosporin, compared with linezolid and vancomycin against methicillin-resistant and vancomycin-intermediate Staphylococcus aureus in a rabbit endocarditis model” (Antimicrob Agents Chemother, 2007).

Broadly, the MIC90 is an inhibitory concentration at the 90% level, which refers to growth in some studies and to a panel of isolates in others. Read a high MIC90 as weaker potency. For orientation: MBC means the lowest tested concentration that kills the bacteria rather than only halting them. Low readings indicate more potent killing, high ones less potent killing. In general, MIC refers to the lowest concentration that inhibits growth of the organism. Read a low MIC as a more susceptible organism. One may read the Cmax as the highest concentration seen after dosing. Broadly, the half-life is the time in which the quantity being followed falls by half. In general, AUC refers to concentration integrated over time. A low value points to less exposure.

One data set has as its system Neisseria meningitidis. Briefly: Antibacterial activity against Neisseria meningitidis. The class given is functional, organism-based.
The subject of a further data set is Pseudomonas aeruginosa. Nature of the data set: Antibacterial activity against Pseudomonas aeruginosa. The class given is functional.
The test system of a further data set is Klebsiella pneumoniae. Nature of the data set: Antibacterial activity against Klebsiella pneumoniae. The data set is classed as functional, organism-based.
Data set [1] deals with Staphylococcus aureus. Nature of the data set: Bactericidal activity against vancomycin-intermediate Staphylococcus aureus in rabbit endocarditis model assessed as growth inhibition at 58 mg/kg infused every 12 hrs for 4 days measured after 48 hrs. The class given is functional. The note with it: read-out: GI.
For data set [2], the system named is Staphylococcus aureus. Briefly: Bactericidal activity against vancomycin-intermediate Staphylococcus aureus in rabbit endocarditis model at 4 times MIC after 48 hrs. The data set is classed as functional, organism-based.
A short description of data set [3]: Protein binding in human plasma. The data set is classed as ADME, cell-free. The note with it: read-out: PPB.
Another data set relates to Haemophilus influenzae. Nature of the data set: Antibacterial activity against Haemophilus influenzae. The data set is classed as functional, organism-based.
Data set [4] relates to Staphylococcus aureus. Briefly: Bactericidal activity against methicillin-resistant Staphylococcus aureus SA2 in rabbit endocarditis model assessed per gram of aortic vegetation at 58 mg/kg infused every 12 hrs for 4 days measured after 48 hrs. The data set is classed as functional, Aorta.
In data set [5] the test system is Staphylococcus aureus. Nature of the data set: %T>MIC in methicillin-resistant Staphylococcus aureus in mouse thigh/lung infection model. The class given is ADME, organism-based. The following applies: in vivo.
The subject of another data set is Citrobacter freundii. Briefly: Antibacterial activity against Citrobacter freundii. The data set is classed as functional, organism-based.
The next data set has as its system Escherichia coli. Briefly: Antibacterial activity against Escherichia coli. The data set is classed as functional, organism-based.
Data set [6] deals with Staphylococcus aureus. Briefly: %T>MIC in methicillin-resistant Staphylococcus aureus SA2 in rabbit endocarditis model. The note with it: in vivo.
Another data set relates to Morganella morganii. Briefly: Antibacterial activity against Morganella morganii. The data set is classed as functional, organism-based.
Data set [7] deals with Staphylococcus aureus. Briefly: Bactericidal activity against methicillin-resistant Staphylococcus aureus SA2 by microdilution technique. The class given is functional. In general terms: Broth dilution looks for growth in wells or tubes with falling amounts of substance.
For data set [8], the system named is Staphylococcus aureus. Nature of the data set: %T>MIC in vancomycin-intermediate Staphylococcus aureus in rabbit endocarditis model. The following applies: in vivo.
Data set [9] in a line: Protein binding in rabbit plasma. The class given is ADME, cell-free, Oryctolagus cuniculus. The note with it: read-out: PPB.
The next data set relates to Moraxella catarrhalis. Nature of the data set: Antibacterial activity against Moraxella catarrhalis. The class given is functional, organism-based.
Data set [10] concerns Staphylococcus aureus. Nature of the data set: Bactericidal activity against methicillin-resistant Staphylococcus aureus SA2 in rabbit endocarditis model assessed as growth inhibition at 58 mg/kg infused every 12 hrs for 4 days measured after 48 hrs. The class given is functional. The following applies: read-out: GI.
Data set [11] has as its system Staphylococcus aureus. Briefly: Bactericidal activity against vancomycin-intermediate Staphylococcus aureus by microdilution technique. The data set is classed as functional.
The test system of data set [12] is Staphylococcus aureus. Nature of the data set: Bactericidal activity against methicillin-resistant Staphylococcus aureus SA2 in rabbit endocarditis model at 4 times MIC after 48 hrs. The data set is classed as functional, organism-based.
Data set [13] concerns Staphylococcus aureus. Briefly: Bactericidal activity against vancomycin-intermediate Staphylococcus aureus in rabbit endocarditis model assessed per gram of aortic vegetation at 58 mg/kg infused every 12 hrs for 4 days measured after 48 hrs. The data set is classed as functional, Aorta.
Data set [14] can be described thus: Cmax in rabbit plasma at 58 mg/kg infused every 12 hrs for 4 days. More on the design: dose 58 mg/kg. The following applies: iv. The data set is classed as ADME, organism-based, Oryctolagus cuniculus.
Data set [15] in a line: Half life in rabbit plasma at 58 mg/kg infused every 12 hrs for 4 days. The class given is ADME, organism-based, Oryctolagus cuniculus. Further details: dose 58 mg/kg. The following applies: iv.
Data set [16] in a line: AUC in rabbit plasma at 58 mg/kg infused every 12 hrs for 4 days. The following applies: iv. The class given is ADME, organism-based, Oryctolagus cuniculus. Further details: dose 58 mg/kg.
Another data set deals with Oryctolagus cuniculus. Nature of the data set: Plasma concentration in rabbit at 58 mg/kg infused every 12 hrs for 4 days. The class given is ADME, organism-based. Further details: dose 58 mg/kg. The following applies: in vivo, iv.

≈ marks a conversion by molar mass, not a printed value. Calls of active or inactive are those of the source. No cut-off for these calls is given here. Some results are limits rather than exact numbers.

Turning to `CCO/N=C(\C(=O)N[C@@H]1C(=O)N2C(C(=O)[O-])=C(Sc3nc(-c4cc[n+](C)cc4)cs3)CS[C@H]12)c1nsc(NP(=O)(O)O)n1` [CEFTAROLINE FOSAMIL], the outcome in the data set with Neisseria meningitidis, in the data set on Klebsiella pneumoniae, in the data set with Staphylococcus aureus [2], in the data set with Haemophilus influenzae, in the data set on Citrobacter freundii and in the data set on Escherichia coli was Active. Moreover, the outcome in the data set with Morganella morganii, in the data set on Moraxella catarrhalis and in the data set on Staphylococcus aureus [12] was Active. Moreover, the MIC90 against Pseudomonas aeruginosa is above 32 µg/mL. For the same molecule, the inhibition in vivo at 58 mg/kg in the data set with Staphylococcus aureus [1] stood at 60%; in the data set with Staphylococcus aureus [10] it was 90%. In addition, the fraction unbound in data set [3] and in data set [9] was above 0.8 throughout. In addition, the log10cfu with Staphylococcus aureus [4] is 2.5; in the data set with Staphylococcus aureus [13], 3. The “T>MIC” value in the data set on Staphylococcus aureus [5] worked out at 33%; in the data set with Staphylococcus aureus [6] it was 75%; in the data set on Staphylococcus aureus [8] it was 62%. Besides, the MBC came to 1 µg/mL (≈ 1.46 µM) with Staphylococcus aureus [7] and 2 µg/mL (≈ 2.92 µM) against Staphylococcus aureus [11]. In addition, the MIC against Staphylococcus aureus [7] is 1 µg/mL (≈ 1.46 µM); against Staphylococcus aureus [11], 2 µg/mL (≈ 2.92 µM).

In turn, `CC(=O)NC[C@H]1CN(c2ccc(N3CCOCC3)c(F)c2)C(=O)O1` [LINEZOLID] registered a Cmax in data set [14] of 19600 ng/mL. Besides, the inhibition in vivo at 58 mg/kg in the data set on Staphylococcus aureus [1] and with Staphylococcus aureus [10] was 0% each time. The log10cfu is given as 7.1 in the data set with Staphylococcus aureus [4] and 6.9 with Staphylococcus aureus [13]. Besides, the half-life in [15] is 3.3 h. Further, the MBC is above 64 µg/mL against Staphylococcus aureus [7] and 16 µg/mL (≈ 47.4 µM) in the data set on Staphylococcus aureus [11]. This molecule showed an AUC in [16] of 137 µg·h/mL. In the data set on Staphylococcus aureus [11], this molecule showed an MIC of 1 µg/mL (≈ 2.96 µM).

Take `COc1cccc(OC)c1C(=O)N[C@@H]1C(=O)N2[C@@H]1SC(C)(C)[C@@H]2C(=O)O` [METHICILLIN]: the MIC was 128 µg/mL (≈ 336 µM) with Staphylococcus aureus [7] and above 1020 µg/mL in the data set with Staphylococcus aureus [11].

`CN[C@H](CC(C)C)C(=O)N[C@H]1C(=O)N[C@@H](CC(N)=O)C(=O)N[C@H]2C(=O)N[C@H]3C(=O)N[C@H](C(=O)N[C@H](C(=O)O)c4cc(O)cc(O)c4-c4cc3ccc4O)[C@H](O)c3ccc(c(Cl)c3)Oc3cc2cc(c3O[C@@H]2O[C@H](CO)[C@@H](O)[C@H](O)[C@H]2O[C@H]2C[C@](C)(N)[C@H](O)[C@H](C)O2)Oc2ccc(cc2Cl)[C@H]1O` [VANCOMYCIN]: the inhibition in vivo at 58 mg/kg with Staphylococcus aureus [1] was 0%; with Staphylococcus aureus [10], 67%. The log10cfu was 2.7 in the data set with Staphylococcus aureus [4] and 6.7 in the data set with Staphylococcus aureus [13]. Besides, the minimum bactericidal concentration (MBC) in the data set with Staphylococcus aureus [7] was 2 µg/mL (≈ 1.38 µM); against Staphylococcus aureus [11], 8 µg/mL (≈ 5.52 µM). The Cp in the data set with Oryctolagus cuniculus amounted to 23100 ng/mL.
